Laboratory results from US12383196B2, “Treatment of depression using machine learning” (The Board of Trustees of the Leland Stanford Junior …, priority 2018, dated 2025).

Tested on: medication-free depressed outpatients
Experiment: EMBARC placebo-controlled randomized clinical trial, treatment response on HAMD17
Type: in vivo, human
Details: for response rate (≥50% reduction in symptoms): sertraline arm, 8 weeks, 50-200 mg
From the text: Data were drawn from four studies. Establishment of the treatment-predictive rsEEG signature was accomplished with data from the Establishing Moderators and Biosignatures of Antidepressant Response in Clinic Care (EMBARC) study^21. EMBARC is the largest neuroimaging-coupled placebo-controlled randomized clinical trial (RCT) in depression to date and involved randomization of 309 medication-free depressed outpatients to receive either the selective serotonin reuptake inhibitor (SSRI) sertraline or placebo for eight weeks (FIG. 8). Of these, 228 had high-quality rsEEG data. We then compared the predictive utility of this algorithm against conventional machine learning approaches on the EEG data as well as a predictive model built on clinical data alone. The generalizability of the antidepressant-predictive signature was then tested in a second independent sample of depressed patients (N=72), for whom we had historical information about treatment response during the current depressive episode. A third independent sample of depressed patients (N=24) was used to assess two features of the treatment-predictive rsEEG signature: convergent validity and neurobiological significance. […] We also tested in the third sample whether regions that were prominent in the rsEEG signature reflected individual differences in cortical responsivity, as directly assessed through single pulse transcranial magnetic stimulation (TMS) during concurrent EEG recording. […]
To simply visualize how the SELSER predictions in FIG. 2A could be used for treatment stratification, we partitioned the patients in each arm by applying an arbitrary median split on the cross-validated predicted HAMD17 score changes derived from the sertraline alpha REO model. We then calculated the rates of treatment response (≥50% reduction in symptoms) for the portion of patients above the median (“high”) and below the median (“low”), respectively, based on the model-predicted HAMD17 change scores (FIG. 2E). […]

With `CN[C@H]1CC[C@@H](c2ccc(Cl)c(Cl)c2)c2ccccc21` [sertraline] as the compound, how does the efficacy versus placebo (only for patients at the higher range of predicted HAMD17 score changes) read?
The efficacy versus placebo was “superior to placebo”.

And the “response rate (≥50% reduction in symptoms)” value (high group (above median of cross-validated predicted HAMD17 score change, sertraline alpha REO model))?
Its value is 65%.

And the “response rate (≥50% reduction in symptoms)” value (low group (below median of cross-validated predicted HAMD17 score change, sertraline alpha REO model))?
The value was 20%.
